Assay results reported in patent US20050208496A1, “Methods of testing for bronchial asthma or chronic obstructive pulmonary disease” (Genox Research, Inc., priority 2002, published 2005).

Test system: respiratory epithelial cells

## IL-13: human IL-13 (Peprotech, Inc.) added to the medium at 50 ng/mL to stimulate respiratory epithelial cells
Lot 1, Day 3, AI method
  DD96 (31610_at) expression, fold change upon IL-13 stimulation: 6.3 fold
  DKFZP564O0823 (41402_at) expression, fold change upon IL-13 stimulation: 5 fold
  DKFZP566J091 (57197_at) expression fold change: 9.4 fold
  DKFZp564N1116 (37784_at) expression, fold change upon IL-13 stimulation: 6.4 fold
  DNAJA1 (276_at) expression fold change upon IL-13 stimulation: 2 fold
  DPYD (38220_at) expression fold change upon IL-13 stimulation: 2.7 fold
  EMILIN-2 (51628_at) expression fold change: 2.1 fold
  FABP4 (38430_at) expression, fold change upon IL-13 stimulation: 3.8 fold
  FBP1 (36495_at) expression fold change upon IL-13 stimulation: 3.2 fold
  FETUB (32620_at) expression fold change: 3.7 fold
  FETUB (33101_g_at) expression fold change: 2.2 fold
  FLJ10261 (43366_at) expression fold change: 7.9 fold
  FLJ22693 (53777_at) expression fold change: 2.8 fold
  FUT10 (908_at) expression fold change upon IL-13 stimulation: 5.8 fold
  G1P3 (1358_s_at) expression, fold change upon IL-13 stimulation: 7.1 fold
  GADD45G (39154_at) expression fold change upon IL-13 stimulation: 3.1 fold
  GBP5 (52615_at) expression fold change: 2.4 fold
  GS3686 (36927_at) expression, fold change upon IL-13 stimulation: 5.7 fold
  HAS3 (54604_at) expression fold change: 2.3 fold
  HDAC9 (37483_at) expression fold change upon IL-13 stimulation: 4.1 fold
  HLA-F (37420_i_at) expression, fold change upon IL-13 stimulation: 2.9 fold
  HLA-F (49203_f_at) expression fold change: 2.4 fold
  HS3ST1 (41556_s_at) expression fold change upon IL-13 stimulation: 3.4 fold
  ICAMt (32640_at) expression fold change upon IL-13 stimulation: 6.5 fold
  IFI27 (425_at) expression, fold change upon IL-13 stimulation: 3.8 fold
  IFI27 (48864_at) expression fold change: 2.9 fold
  IFI35 (464_s_at) expression, fold change upon IL-13 stimulation: 13.2 fold
  IFI44 (37641_at) expression, fold change upon IL-13 stimulation: 5.9 fold
  IFIT1 (915_at) expression, fold change upon IL-13 stimulation: 19.2 fold
  IFIT1 (32814_at) expression, fold change upon IL-13 stimulation: 10.6 fold
  IFIT4 (38584_at) expression, fold change upon IL-13 stimulation: 2.7 fold
  IFITM1 (675_at) expression, fold change upon IL-13 stimulation: 10.7 fold
  IL13RA2 (1016_s_at) expression fold change upon IL-13 stimulation: 10.2 fold
  IL19 (47855_at) expression fold change: 4 fold
  ILIRL1 (40322_at) expression, fold change upon IL-13 stimulation: 5.5 fold
  IRF7 (36412_s_at) expression fold change: 4.9 fold
  ISG15 (1107_s_at) expression, fold change upon IL-13 stimulation: 13.1 fold
  ISG15 (38432_at) expression, fold change upon IL-13 stimulation: 23.7 fold
  ISG20 (33304_at) expression, fold change upon IL-13 stimulation: 4.8 fold
  KIAA0537 (33787_at) expression, fold change upon IL-13 stimulation: 7.5 fold
  KIAA1268 (57050_at) expression fold change: 3.2 fold
  KIAAI268 (59516_at) expression fold change: 4.1 fold
  LAMP3 (37168_at) expression, fold change upon IL-13 stimulation: 6.3 fold
  LOC57118 (51085_at) expression fold change: 2.4 fold
  LOC64116 (40456_at) expression, fold change upon IL-13 stimulation: 2.2 fold
  MDA5 (51920_at) expression fold change: 6.6 fold
  MFHAS1 (50388_at) expression fold change: 2.3 fold
  MICB (35937_at) expression, fold change upon IL-13 stimulation: 3.3 fold
  MKP-L (38272_at) expression, fold change upon IL-13 stimulation: 2 fold
  MMP7 (668_s_at) expression, fold change upon IL-13 stimulation: 2.6 fold
  MX2 (879_at) expression fold change: 8.7 fold
  MXI (37014_at) expression fold change: 12.3 fold
  NCF2 (41038_at) expression fold change: 2.9 fold
  NK4 (39119_s_at) expression fold change upon IL-13 stimulation: 4 fold
  NOS2A (1948_f_at) expression fold change upon IL-13 stimulation: 5.3 fold
  NOS2A (48918_at) expression fold change: 4.3 fold
  OAF (39695_at) expression, fold change upon IL-13 stimulation: 3.4 fold
  OAS1 (38388_at) expression fold change upon IL-13 stimulation: 6.2 fold
  OAS1 (38389_at) expression fold change upon IL-13 stimulation: 4.5 fold
  OAS2 (39263_at) expression fold change upon IL-13 stimulation: 5 fold
  OSF-2 (1451_s_at) expression fold change upon IL-13 stimulation: 10.5 fold
  PHKB (46459_at) expression fold change: 2 fold
  PKD2 (38120_at) expression, fold change upon IL-13 stimulation: 2.8 fold
  PLOD2 (34795_at) expression fold change upon IL-13 stimulation: 2.3 fold
  PLS1 (39951_at) expression fold change: 2.5 fold
  PLSCR1 (32775_r_at) expression fold change upon IL-13 stimulation: 2.9 fold
  PSMB9 (38287_at) expression fold change upon IL-13 stimulation: 3.2 fold
  RIG-1 (59215_at) expression fold change: 7.2 fold
  SAMHD1 (34714_at) expression, fold change upon IL-13 stimulation: 3.4 fold
  SCYB10 (431_at) expression fold change upon IL-13 stimulation: 5.2 fold
  SCYB11 (35061_at) expression fold change upon IL-13 stimulation: 8.9 fold
  SECTM1 (41045_at) expression, fold change upon IL-13 stimulation: 6.5 fold
  SERPINB2 (37185_at) expression fold change: 2.1 fold
  SERPINB4 (1549_s_at) expression fold change: 4.2 fold
  SERPINB6 (34789_at) expression fold change: 2.2 fold
  SIAT1 (41352_at) expression fold change upon IL-13 stimulation: 4.7 fold
  SLC26A4, pendrin (36376_at) expression fold change: 18.8 fold
  SSI-1 (41592_at) expression, fold change upon IL-13 stimulation: 5.6 fold
  STAT1 (32860_g_at) expression fold change: 2.8 fold
  STAT1 (33338_at) expression fold change: 9.7 fold
  STAT1 (33339_g_at) expression fold change: 3.5 fold
  TGM2 (38404_at) expression fold change upon IL-13 stimulation: 8.5 fold
  THBS1 (115_at) expression fold change upon IL-13 stimulation: 10.4 fold
  TSPAN-3 (38612_at) expression, fold change upon IL-13 stimulation: 2.2 fold
  TXNRD1 (39425_at) expression fold change upon IL-13 stimulation: 2 fold
  UBE2L6 (40505_at) expression fold change upon IL-13 stimulation: 3.3 fold
  UFD1L (811_at) expression, fold change upon IL-13 stimulation: 2.3 fold
  WARS (38121_at) expression fold change upon IL-13 stimulation: 3.5 fold
  cig5 (38549_at) expression, fold change upon IL-13 stimulation: 10.1 fold
  diubiquitin (39959_at) expression, fold change upon IL-13 stimulation: 21.3 fold
Lot 1, Day 3, IMM method
  AA149682 (51925_at) expression fold change: 2.4 fold
  AA541787 (52622_at) expression fold change: 2.6 fold
  ADAM28 (35479_at) expression, fold change upon IL-13 stimulation: 4.8 fold
  AI565105 (54886_at) expression fold change: 2.2 fold
  AI659927 (54033_at) expression fold change: 8.3 fold
  AI989346 (52327_s_at) expression fold change: 2.3 fold
  ALOX15 (34636_at) expression, fold change upon IL-13 stimulation: 69.2 fold
  ARL7 (57151_at) expression fold change: 3.2 fold
  AW019985 (48826_s_at) expression fold change: 6 fold
  BAL (52167_at) expression fold change: 3.6 fold
  BRCA1 (626_s_at) expression fold change: 7.6 fold
  BST2 (39061_at) expression, fold change upon IL-13 stimulation: 8.3 fold
  C21orf11 (58957_at) expression fold change: 6.2 fold
  CDH6 (1620_at) expression fold change upon IL-13 stimulation: 4.2 fold
  CDH6 (57421_at) expression fold change: 4.7 fold
  CDH26 (46916_at) expression fold change: 16 fold
